We go through 1 compound from ChEMBL document CHEMBL5046231, “Modulation of Naturally Occurring Linear Dipeptide Chirality to Reduce the Affinity for Oligopeptide Transporter 1 and Increase Intestinal Stability for an Enhanced Colon-Targeting Effect in the Treatment of Inflammatory Bowel Disease: An Application of trans-4-l-Hydroxyprolyl-l-serine” (J Med Chem, 2022).

Series [1] in a line: Stability in human Caco-2 cells homogenate assessed as half life measured up to 12 hrs by HPLC analysis. Format: ADME, cell-based. The note with it: Caco-2 cell homogenate.
Series [2] relates to Mus musculus. As to the kind of experiment: Anti-colitis activity against DSS-induced colitis in C57BL/6 mouse model assessed as increase in colon length at 25 mg/kg, po administered via gavage twice daily for 10 days. Format: functional, organism-based. As to conditions: time 10.0 day.
A short description of series [3]: Chemical stability in phosphate buffer at pH 6.8 assessed as half life measured up to 12 hrs by HPLC analysis. Format: physicochemical.
Series [4] relates to Mus musculus. The series is described as follows: Antiinflammatory activity in DSS-induced C57BL/6 mouse model of colitis assessed as decrease in […] level 25 to 100 mg/kg, po administered via gavage twice a day for 10 days. Format: functional, organism-based. The note with it: dose 25-100 mg/kg, time 10.0 day.
Series [5] is described as follows: Cmax in healthy C57BL/6 mouse at 25 mg/kg, po measured up to 6 hrs by UPLC-MS/MS analysis. Format: ADME, organism-based. The arrangement: route oral, dose 25 mg/kg, time <=6. As to conditions: in vivo.
Series [6] is described as follows: Chemical stability in acetate buffer at pH 4.5 assessed as half life measured up to 12 hrs by HPLC analysis. Format: physicochemical.
Series [7] concerns Mus musculus. As to the kind of experiment: Antiinflammatory activity in DSS-induced C57BL/6 mouse model of colitis assessed as increase in IL-10 level 25 to 100 mg/kg, po administered via gavage twice a day for 10 days. Format: functional, organism-based. The note with it: dose 25-100 mg/kg, time 10.0 day.
The test system of series [8] is Mus musculus. As to the kind of experiment: Anti-colitis activity against DSS-induced C57BL/6 mouse model of colitis assessed as fold change in colon length at 25 to 100 mg/kg, po administered via gavage twice a day for 10 days relative to SASP. The series is classed as functional. The note with it: dose 25-100 mg/kg; time 10 day.
Series [9] can be described thus: Cmax in DSS-induced colitis C57BL/6 mouse model at 25 mg/kg, po measured up to 6 hrs by UPLC-MS/MS analysis. Format: ADME, organism-based. As to conditions: in vivo. On the set-up: route oral, dose 25 mg/kg, time <=6.
Series [10] in a line: Metabolic stability in healthy C57BL/6 mouse liver assessed as half life measured up to 12 hrs by HPLC analysis. Format: ADME, tissue-based.
Series [11] has as its system Mus musculus. The series is described as follows: Anti-colitis activity against DSS-induced C57BL/6 mouse model of colitis assessed as fold change in body weight recovery at 25 to 100 mg/kg, po administered via gavage twice a day for 10 days relative to SASP. Format: functional. The note with it: dose 25-100 mg/kg; time 10 day.
The nature of series [12]: Toxicity in healthy C57BL/6 mouse assessed as change in body weight at 100 mg/kg, po administered for 10 days. Format: organism-based. The note with it: in vivo, 240 h, time 10 day.
Series [13] deals with Mus musculus. The series is described as follows: Anti-colitis activity against DSS-induced colitis in C57BL/6 mouse model assessed as assessed as recovery of body weight at 25 mg/kg, po administered via gavage twice daily for 10 days. The series is classed as functional, organism-based. The note with it: time 10.0 day.
Series [14] can be described thus: Metabolic stability in DSS-induced C57BL/6 inflammatory mouse model colonic flora homogenate assessed as half life measured up to 12 hrs by HPLC analysis. The series is classed as ADME. The note with it: C57BL/6, mouse.

Active and inactive are the calls of the source. No cut-off for these calls is given here.

As for `O=C(O)[C@@H](CO)NC(=O)[C@H]1C[C@@H](O)CN1`, the half-life in series [1], in [3], in series [6], in series [10] and in series [14] was over 12 h throughout. Further, the outcome in the series with Mus musculus [2], in the series on Mus musculus [4], with Mus musculus [7] and in the series on Mus musculus [13] was Active. The peak concentration (Cmax) (as a rule, the peak of the concentration-time curve) in series [5] turned out to be 5.79 µM; in [9], 24 µM. For the same compound, the entries for the “fold change (FC)” value in the series on Mus musculus [8] and in the series on Mus musculus [11] were 1.2 and 2.1, respectively. Also, in [12], the Activity result was “Non-Toxic”.
